{"source": "patent EP3125690B1", "about": "“HERBICIDAL MIXTURE OF CAROTENOID BIOSYNTHESIS INHIBITING COMPOUND AND AN AHAS/ALS INHIBITING COMPOUND AND USES THEREOF” (Adama Agan Ltd., priority 2014, dated 2015)", "assay_type_in_all_cases": "in vivo", "key": {"[1]": {"system": "Abutilon theophrasti", "assay": "Herbicide efficacy trial in sunflower crop, Example 1 (0 to 100 scale)", "conditions": "avg, n 1", "source_text": "(§1) Four herbicide treatments were compared: • a) Imazamox 20 g/l + Aclonifen 300 g/l SC formulation (Application Rate of 2.0 l/ha) • b) Imazamox 40 g/l SC + Aclonifen 600 g/l SC tank-mix (Application Rate of 1.0 l/ha + 1.0 l/ha) • c) Imazamox 40 g/l SL formulation (commercially available as Pulsar) (Application Rate of 1.0 1/ha) • d) Aclonifen 600 g/l SC formulation (Application Rate of 1.0 l/ha)\n(§2) The above treatments were applied to a variety of weeds. The results are based on a 0 to 100 scale where 0 is no effect and 100 is complete control. Table 2 compares the individual applications aclonifen and imazamox with the tank-mix of the two active ingredients as well as the ready-mix formulation of aclonifen and imazamox.\n(§3) The trial detailed in Tables 1-4 were conducted on Sunflower crop in France, Hungary and Romania."}, "[2]": {"system": "Amaranthus retroflexus", "assay": "Herbicide efficacy trial in sunflower crop, Example 1 (0 to 100 scale)", "conditions": "avg, n 2", "source_text": "as §1, §2, §3"}, "[3]": {"system": "Ambrosia artemisiifolia", "assay": "Herbicide efficacy trial in sunflower crop, Example 1 (0 to 100 scale)", "conditions": "avg, n 2", "source_text": "as §1, §2, §3"}, "[4]": {"system": "Calystegia sepium", "assay": "Herbicide efficacy trial in sunflower crop, Example 1 (0 to 100 scale)", "conditions": "avg, n 1", "source_text": "as §1, §2, §3"}, "[5]": {"system": "Chenopodium album", "assay": "Herbicide efficacy trial in sunflower crop, Example 1 (0 to 100 scale)", "conditions": "avg, n 6", "source_text": "as §1, §2, §3"}, "[6]": {"system": "Conyza Canadensis", "assay": "Herbicide efficacy trial in sunflower crop, Example 1 (0 to 100 scale)", "conditions": "avg, n 1", "source_text": "as §1, §2, §3"}, "[7]": {"system": "Digitaria sanguinalis", "assay": "Herbicide efficacy trial in sunflower crop, Example 1 (0 to 100 scale)", "conditions": "avg, n 1", "source_text": "as §1, §2, §3"}, "[8]": {"system": "Echinochloa crus-galli", "assay": "Herbicide efficacy trial in sunflower crop, Example 1 (0 to 100 scale)", "conditions": "avg, n 3", "source_text": "as §1, §2, §3"}, "[9]": {"system": "Fallopia convolvulus", "assay": "Herbicide efficacy trial in sunflower crop, Example 1 (0 to 100 scale)", "conditions": "avg, n 1", "source_text": "as §1, §2, §3"}, "[10]": {"system": "Hibiscus trionum", "assay": "Herbicide efficacy trial in sunflower crop, Example 1 (0 to 100 scale)", "conditions": "avg, n 2", "source_text": "as §1, §2, §3"}, "[11]": {"system": "Mercurialis annua", "assay": "Herbicide efficacy trial in sunflower crop, Example 1 (0 to 100 scale)", "conditions": "avg, n 2", "source_text": "as §1, §2, §3"}, "[12]": {"system": "Persicaria lapathifolia", "assay": "Herbicide efficacy trial in sunflower crop, Example 1 (0 to 100 scale)", "conditions": "avg, n 1", "source_text": "as §1, §2, §3"}, "[13]": {"system": "Setaria pumila", "assay": "Herbicide efficacy trial in sunflower crop, Example 1 (0 to 100 scale)", "conditions": "avg, n 1", "source_text": "as §1, §2, §3"}, "[14]": {"system": "Sonchus arvensis", "assay": "Herbicide efficacy trial in sunflower crop, Example 1 (0 to 100 scale)", "conditions": "avg, n 1", "source_text": "as §1, §2, §3"}, "[15]": {"system": "Persicaria lapathifolia", "assay": "Herbicide efficacy trial with Colby calculation, Example 2", "conditions": "application rate 1000 (ml or gr)", "source_text": "(§4) In the context of the present subject matter, the term \"synergy\" is as defined by Colby S. R. in an article entitled \"Calculation of the synergistic and antagonistic responses of herbicide combinations\" published in the journal Weeds, 1967, 15, p. 20-22, incorporated herein by reference in its entirety. The action expected for a given combination of three active ingredients can be calculated as follows: E = X + Y−(XY)/(100) [formula] in which E represents the expected percentage of herbicidal control for the combination of the three herbicides at defined doses (for example equal to x, y and z respectively), X is the percentage of herbicidal control observed by aclonifen at a defined dose (equal to x), Y is the percentage of herbicidal control observed by imazamox at a defined dose (equal to y). When the percentage of herbicidal control observed for the combination is greater than the expected percentage, there is a synergistic effect. When the percentage of control observed for the combination is equal to the expected percentage, there is an additive effect and wherein the percentage of herbicidal control observed for the combination is lower than the expected percentage, there is an antagonistic effect.\n(§5) Three herbicide treatments were compared: • a) Imazamox 40 g/l SC + Aclonifen 600 g/l SC tank-mix (Application Rate of 1.0 l/ha + 1.0 l/ha) • b) Imazamox 40 g/l SL formulation (commercially available as Pulsar) (Application Rate of 1.0 l/ha) • c) Aclonifen 600 g/l SC formulation (Application Rate of 1.0 l/ha)\n(§6) The above treatments were applied to a variety of weeds. The results are based on a 0 to 100 scale where 0 is no effect and 100 is complete control. Table 3-4 compares the individual applications of aclonifen and imazamox with the tank of the two active ingredients.\nas §3"}, "[16]": {"system": "Setaria pumila", "assay": "Herbicide efficacy trial with Colby calculation, Example 2", "conditions": "application rate 1000 (ml or gr); for % control observed 41 DAA: 41 days after application; for % control observed 62 DAA: 62 days after application; for % control observed 107 DAA: 107 days after application", "source_text": "as §4, §5, §6, §3"}, "[17]": {"system": "Solanum Nigrum", "assay": "Herbicide efficacy trial with Colby calculation, Example 2", "conditions": "application rate 1000 (ml or gr)", "source_text": "as §4, §5, §6, §3"}, "[18]": {"system": "Persicaria lapathifolia", "assay": "Herbicide efficacy trial with Colby calculation, Example 3", "conditions": "application rate 1000 (ml or gr); for % control observed 13 DAA: 13 days after application; for % control observed 38 DAA: 38 days after application; for % control observed 76 DAA: 76 days after application", "source_text": "as §4\nFour herbicide treatments were compared: • a) Imazamox 20 g/l + Aclonifen 300 g/l SC formulation (Application Rate of 2.0 l/ha) • b) Imazamox 40 g/l SC + Aclonifen 600 g/l SC tank-mix (Application Rate of 1.0 l/ha + 1.0 l/ha) • c) Imazamox 40 g/l SL formulation (commercially available as Pulsar) (Application Rate of 1.0 l/ha) • d) Aclonifen 600 g/l SC formulation (Application Rate of 1.0 l/ha)\nThe above treatments were applied to a variety of weeds. The results are based on a 0 to 100 scale where 0 is no effect and 100 is complete control. Table 5 compares the individual applications aclonifen and imazamox with the tank-mix of the two active ingredients as well as the ready-mix formulation of aclonifen and imazamox."}}, "data": [{"smiles": "COCc1cnc(C2=NC(C)(C(C)C)C(=O)N2)c(C(=O)O)c1", "note": "(racemic) [Imazamox SL, 2-[(RS)-4-isopropyl-4-methyl-5-oxo-2-imidazolin-2-yl]-5-methoxymethylnicotinic acid]", "values": [{"measurement": "Efficacy (% Control)", "setting": "[1]; 40 g ai/ha, 1,00 l/ha", "result": 90.5, "unit": "%"}, {"measurement": "Efficacy (% Control)", "setting": "[2]; 40 g ai/ha, 1,00 l/ha", "result": 93.3, "unit": "%"}, {"measurement": "Efficacy (% Control)", "setting": "[3]; 40 g ai/ha, 1,00 l/ha", "result": 88.4, "unit": "%"}, {"measurement": "Efficacy (% Control)", "setting": "[4]; 40 g ai/ha, 1,00 l/ha", "result": 80.5, "unit": "%"}, {"measurement": "Efficacy (% Control)", "setting": "[5]; 40 g ai/ha, 1,00 l/ha", "result": 91.0, "unit": "%"}, {"measurement": "Efficacy (% Control)", "setting": "[6]; 40 g ai/ha, 1,00 l/ha", "result": 37.5, "unit": "%"}, {"measurement": "Efficacy (% Control)", "setting": "[7]; 40 g ai/ha, 1,00 l/ha", "result": 75.0, "unit": "%"}, {"measurement": "Efficacy (% Control)", "setting": "[8]; 40 g ai/ha, 1,00 l/ha", "result": 85.1, "unit": "%"}, {"measurement": "Efficacy (% Control)", "setting": "[9]; 40 g ai/ha, 1,00 l/ha", "result": 92.8, "unit": "%"}, {"measurement": "Efficacy (% Control)", "setting": "[10]; 40 g ai/ha, 1,00 l/ha", "result": 58.1, "unit": "%"}, {"measurement": "Efficacy (% Control)", "setting": "[11]; 40 g ai/ha, 1,00 l/ha", "result": 69.0, "unit": "%"}, {"measurement": "Efficacy (% Control)", "setting": "[12]; 40 g ai/ha, 1,00 l/ha", "result": 67.9, "unit": "%"}, {"measurement": "Efficacy (% Control)", "setting": "[13]; 40 g ai/ha, 1,00 l/ha", "result": 81.0, "unit": "%"}, {"measurement": "Efficacy (% Control)", "setting": "[14]; 40 g ai/ha, 1,00 l/ha", "result": 84.6, "unit": "%"}, {"measurement": "% control observed", "setting": "[15]; 40 g/ha", "result": 67.90, "unit": "%"}, {"measurement": "% control observed", "setting": "[16]; 40 g/ha", "result": 81, "unit": "%"}, {"measurement": "% control observed 41 DAA", "setting": "[16]; 40 g/ha", "result": 20.00, "unit": "%"}, {"measurement": "% control observed 62 DAA", "setting": "[16]; 40 g/ha", "result": 90.00, "unit": "%"}, {"measurement": "% control observed 107 DAA", "setting": "[16]; 40 g/ha", "result": 81.00, "unit": "%"}, {"measurement": "% control observed", "setting": "[17]; 40 g/ha", "result": 79.45, "unit": "%"}, {"measurement": "% control observed 13 DAA", "setting": "[18]; 40 g/ha", "result": 79.47, "unit": "%"}, {"measurement": "% control observed 38 DAA", "setting": "[18]; 40 g/ha", "result": 58.11, "unit": "%"}, {"measurement": "% control observed 76 DAA", "setting": "[18]; 40 g/ha", "result": 55.50, "unit": "%"}]}, {"smiles": "Nc1c([N+](=O)[O-])ccc(Oc2ccccc2)c1Cl", "note": "[Aclonifen SC, 2-Chlor-6-nitro-3-phenoxyanilin]", "values": [{"measurement": "Efficacy (% Control)", "setting": "[1]; 600 g ai/ha, 1,00 l/ha", "result": 50.0, "unit": "%"}, {"measurement": "Efficacy (% Control)", "setting": "[2]; 600 g ai/ha, 1,00 l/ha", "result": 72.0, "unit": "%"}, {"measurement": "Efficacy (% Control)", "setting": "[3]; 600 g ai/ha, 1,00 l/ha", "result": 78.9, "unit": "%"}, {"measurement": "Efficacy (% Control)", "setting": "[4]; 600 g ai/ha, 1,00 l/ha", "result": 66.8, "unit": "%"}, {"measurement": "Efficacy (% Control)", "setting": "[5]; 600 g ai/ha, 1,00 l/ha", "result": 85.1, "unit": "%"}, {"measurement": "Efficacy (% Control)", "setting": "[6]; 600 g ai/ha, 1,00 l/ha", "result": 25.0, "unit": "%"}, {"measurement": "Efficacy (% Control)", "setting": "[7]; 600 g ai/ha, 1,00 l/ha", "result": 62.5, "unit": "%"}, {"measurement": "Efficacy (% Control)", "setting": "[8]; 600 g ai/ha, 1,00 l/ha", "result": 78.1, "unit": "%"}, {"measurement": "Efficacy (% Control)", "setting": "[9]; 600 g ai/ha, 1,00 l/ha", "result": 91.0, "unit": "%"}, {"measurement": "Efficacy (% Control)", "setting": "[10]; 600 g ai/ha, 1,00 l/ha", "result": 81.3, "unit": "%"}, {"measurement": "Efficacy (% Control)", "setting": "[11]; 600 g ai/ha, 1,00 l/ha", "result": 74.7, "unit": "%"}, {"measurement": "Efficacy (% Control)", "setting": "[12]; 600 g ai/ha, 1,00 l/ha", "result": 38.3, "unit": "%"}, {"measurement": "Efficacy (% Control)", "setting": "[13]; 600 g ai/ha, 1,00 l/ha", "result": 20.0, "unit": "%"}, {"measurement": "Efficacy (% Control)", "setting": "[14]; 600 g ai/ha, 1,00 l/ha", "result": 84.7, "unit": "%"}, {"measurement": "% control observed", "setting": "[15]; 600 g/ha", "result": 38.30, "unit": "%"}, {"measurement": "% control observed", "setting": "[16]; 600 g/ha", "result": 20, "unit": "%"}, {"measurement": "% control observed 41 DAA", "setting": "[16]; 600 g/ha", "result": 11.00, "unit": "%"}, {"measurement": "% control observed 62 DAA", "setting": "[16]; 600 g/ha", "result": 20.00, "unit": "%"}, {"measurement": "% control observed 107 DAA", "setting": "[16]; 600 g/ha", "result": 20.00, "unit": "%"}, {"measurement": "% control observed", "setting": "[17]; 600 g/ha", "result": 33.33, "unit": "%"}, {"measurement": "% control observed 13 DAA", "setting": "[18]; 600 g/ha", "result": 71.02, "unit": "%"}, {"measurement": "% control observed 38 DAA", "setting": "[18]; 600 g/ha", "result": 44.14, "unit": "%"}, {"measurement": "% control observed 76 DAA", "setting": "[18]; 600 g/ha", "result": 38.25, "unit": "%"}]}]}
